For this test, the system named is T1, Glucose-6-phosphate dehydrogenase (G6PDH).
T1 construct: gene G6PD; native enzyme in crude hepatopancreas extract of aerobic control animals, not purified; mixture of low- and high-phosphate forms
The experiment in a line: NADPH production at […] nm, microplate reader. It is filed as biochemical, Faxonius virilis. The conditions noted are these: untreated extract of aerobic control animals, 50 mM imidazole, pH 7.0, 22 °C, read-out: Control K m.

Where two headings read alike, the source gives them in different places.

Consider `NC(=O)c1ccc[n+]([C@@H]2O[C@H](COP(=O)(O)OP(=O)(O)OC[C@H]3O[C@@H](n4cnc5c(N)ncnc54)[C@H](OP(=O)(O)O)[C@@H]3O)[C@@H](O)[C@H]2O)c1` [NADP^+], for which, for the setting “G6P constant”, the Km was found to be 150 ± 8 µM. `O=P(O)(O)OC[C@H]1OC(O)[C@H](O)[C@@H](O)[C@@H]1O` (some centres unmarked) [G6P]: the Km (NADP+ constant) was found to be 130 ± 16 µM.
